US20240390318A1, “PHARMACEUTICAL COMPOSITION COMPRISING CDK INHIBITOR AND ID2 ACTIVATOR FOR PREVENTION OR TREATMENT OF BLADDER CANCER” (THE ASAN FOUNDATION, priority 2021, published 2024)

Tests used:
[1] = test system: bladder cancer cell lines; assay: Tumor sphere formation; format: cell-based, human
Method: To form tumor spheres, BC cells were resuspended in a single-cell suspension mixed with serum-free keratinocyte growth medium (Gibco, Waltham, MA, USA) and growth factor-reduced Matrigel (BD Biosciences, Mountain View, CA, USA) in a 1:1 ratio, and cultured on ultra-low attachment plates (Costar, Corning, NY, USA). The size of the tumor sphere was measured for 7 days after the first culture. For quantitative analysis, Image J software (National Institute of Mental Health, Bethesda, MD, USA) was used to measure the circumference of tumor sphere in eight representative regions randomly selected from each group.

[2] = test system: bladder cancer cell lines; assay: Cell proliferation by MTT assay; format: cell-based, human; conditions: for growth of BC cells: bladder cancer cell lines, apigenin with increasing dosage; for cell growth, proliferation: low concentrations, single or co-treatment
Method: (§1) Human BC cell lines T24, 5637, HT1197, HT1376, and RT4 were cultured in Eagle's Minimum Essential (for HT1197 and HT1376), McCoy's 5a Medium Modified (for T24 and RT4), and RPMI-1640 (for […]) medium (ATCC, Manassas, VA, USA) including 10% heat-inactivated FBS (Hyclone, Pittsburgh, PA, USA) and penicillin/streptomycin (Cellgro, Pittsburgh, PA, USA). 40 μM apigenin (Sigma-Aldrich, Burlington, MA, USA), 4-hydroxychalcone (Sigma-Aldrich), and diosmetin (Sigma-Aldrich) were treated for 24 hours to activate ID2 expression, and 20 μM RO-3306 (Sigma-Aldrich) and CGP74514A (Sigma-Aldrich) were treated for 24 hours to inhibit CDK1 activity.
(§2) The cell proliferation ability was determined by MTT assay (Sigma-Aldrich). Apoptosis was analyzed by annexin-V fluorescein isothiocyanate (FITC)/propidium iodide (PI) assay. Cells were subjected to trypsin, harvested, washed with PBS, resuspended in annexin-V binding buffer (10 mM HEPES, pH 7.4, 140 mM NaCl, 2.5 mM CaCl2)), and labeled with Annexin-V FITC and PI. FITC- and/or PI-labeled cell colonies were quantified by flow cytometry (Beckman Coulter, Brea, CA, USA).

[3] = test system: ID2; assay: ID2 expression in bladder cancer cells (qPCR, Western blot); format: cell-based, human; conditions: HT1197 and HT1376 cells; ID2 activators 40 μM, CDK1 inhibitors 20 μM, 24 hours
Method: as §1
Real-time quantification PCR was used to perform quantitative analysis of gene expression. Total RNA was extracted using the QIAGEN RNeasy RNA isolation kit (QIAGEN, Valencia, CA, USA), and 50 ng of total RNA was reverse transcribed using Taqman Reverse Transcription Reagents (Applied Biosystems, Foster City, CA, USA). Threshold cycles (Ct) were used to determine the relative expression levels of target genes using the 2-DDCt method. The expression of GAPDH was used as an endogenous control gene.
(§3) Cell extracts (30 μg) were prepared in RIPA lysis buffer (Santa Cruz Biotechnology) supplemented with a protease and phosphatase inhibitor cocktail (Roche, Indianapolis, IN, USA) and isolated in a 12% SDS-PAGE gel. An expression level of the labeled protein was assessed by probing with the following antibodies: ID2 (NBP-88630; Novusbio, Centennial, CO, USA), TFCP2L1 (OAAB09732; Aviva Systems Biology, San Diego, CA, USA), CDK1 (sc-54; Santa Cruz), PARP (9542; Cell Signaling), Cleaved Caspase-3 (9661; Cell Signaling), b-ACTIN (A5441; Sigma-Aldrich), and Flag-epitope (F3165; Sigma-Aldrich).

[4] = test system: bladder cancer cell lines; assay: Apoptosis by annexin-V FITC/PI flow cytometry; format: cell-based, human; conditions: for apoptosis of BC cells: bladder cancer cell lines, apigenin time-dependent treatment; for apoptosis of bladder cancer cells: low concentrations, single or co-treatment
Method: as §1, §2

[5] = test system: CDK1; assay: CDK1 protein expression in orthotopic xenograft bladder (immunofluorescence); format: in vivo, mice; conditions: HT1376 orthotopic xenograft; RO-3306 4 mg/kg alone or with apigenin 50 mg/kg i.p.
Method: (§4) All animal experiments conducted in this experiment were carried out with the approval of the Institutional Animal Care Committee (IACUC-2020-12-209) of the University of Ulsan College of Medicine. 8-week-old male NOD/[…]) mice were purchased from GEM Biosciences Inc. (Cheongju, South Korea). 100 μl of 1.0×10^6 HT1376 BC cells were injected into the anterior wall of the bladder and the outer layer of the dome using a […] and a 26-gauge needle in the mice adapted for 1 week at the Animal Laboratory of Asan Medical Center, Seoul. Three weeks after orthotopic transplantation of BC cells, mice were injected intraperitoneally with RO-3306 (4 mg/kg) and apigenin (50 mg/kg), either alone or in combination, for 6 times at 4-day intervals. Mice and injection sites were monitored every 2 days for 45 days after the initial administration of BC cells. Tumor size was measured at the endpoint, and the tumor site was recovered by incision to perform histological examination or immunofluorescence assay. Mice were randomly assigned to the treatment group (N=5 or 10) and randomized to the sequence of cell transplantation, treatment, evaluation, and daily checkup. […] The stained samples were photographed using an inverted fluorescence microscope (EVOS FL Color Imaging System, Life Technologies).

[6] = test system: HT1376 cells; assay: Orthotopic xenograft BC animal model, tumor size and histological examination; format: in vivo; conditions: NSG mice; for tumor growth suppression/inhibition: i.p. apigenin 50 mg/kg and/or RO-3306 4 mg/kg, 6 times at 4-day intervals
Method: as §4, with “checkup. Investigations related to tumor size measurement and histological assessment were conducted as blind tests for the treatment group. For histological analysis, the bladder of xenograft mice was fixed with 4% paraformaldehyde for 1 day. After 24 hours of cryoprotection in 30% sucrose, each bladder was cut into 20 μm sections using cryostat (Leica, Lussloch, Germany) and stained with hematoxylin and eosin (H&E). For immunofluorescence (IF) staining, the bladder was stained with antibodies specific to ID2 (NBP-88630; Novusbio), TFCP2L1 (OAAB09732; Aviva Systems Biology), CDK1 (ab131450; Abcam, Cambridge, MA, USA), CD44 (ab78960; Abcam), and Cytokeratin 14 (KRT14; Ab7800).” for “checkup.”

[7] = test system: ID2; assay: ID2 protein expression in orthotopic xenograft bladder (immunofluorescence); format: in vivo, mice; conditions: HT1376 orthotopic xenograft; RO-3306 4 mg/kg alone or with apigenin 50 mg/kg i.p.
Method: as §4

[8] = test system: bladder cancer cell lines; assay: Western blot of caspase-3 and PARP cleavage; format: cell-based, human; conditions: for cleavage of caspase-3 and PARP: low concentrations, single or co-treatment
Method: as §1, §3

[9] = test system: TFCP2L1; assay: TFCP2L1 protein expression in orthotopic xenograft bladder (immunofluorescence); format: in vivo, mice; conditions: HT1376 orthotopic xenograft; RO-3306 4 mg/kg alone or with apigenin 50 mg/kg i.p.
Method: as §4

[10] = test system: bladder cancer cell lines; assay: In vitro cell invasion (Transwell, Matrigel); format: cell-based, human
Method: The upper chamber of the Transwell permeable support (Corning Inc, Corning, NY, USA) with an 8.0 μm pore polycarbonate membrane filter was coated with Matrigel (BD Biosciences) diluted in a 1:5 ratio. BC cells were loaded into the upper chamber at 2×10^4 cell/well concentrations in 100 μL of serum-free DMEM, and culture medium containing 3% FBS was filled into the lower chamber. Cell invasiveness was evaluated by culturing cells at 37° C. for 24 hours in a 5% CO2 incubator and then counting the number of cells that migrated to the bottom of the membrane. Three fields of view (magnification, ×200) were randomly selected from each transwell chamber for quantitative analysis.

Compound | tumor sphere forming ability [1] | growth of BC cells [2] | expression of ID2 at RNA and protein levels [3] | apoptosis of BC cells [4] | expression of CDK1 protein [5] | tumor growth suppression/inhibition [6] | expression level of ID2 protein [7] | cleavage of caspase-3 and PARP [8] | cell growth, proliferation [2] | expression of TFCP2L1 protein [9] | apoptosis of bladder cancer cells [4] | histological examination: therapeutic effect, size and progression of bladder cancer ([6]; i.p. 6 times at 4-day intervals) | cleavage of caspase-3 and poly-(ADP-ribose) polymerase (PARP) ([8]; bladder cancer cell lines) | invasiveness of BC cells [10]
O=C(/C=C/c1ccc(O)cc1)c1ccccc1 [4-hydroxychalcone] | tumor forming ability was reduced | reduced the growth of bladder cancer cells | increase in ID2 expression | activated apoptosis |  |  |  |  |  |  |  |  |  | 
CCn1cnc2c(Nc3cccc(Cl)c3)nc(N[C@@H]3CCCC[C@@H]3N)nc21 [CGP74514A] |  |  | increase in ID2 expression |  |  |  |  |  |  |  |  |  |  | 
O=C1NC(=NCc2cccs2)S/C1=C\c1ccc2ncccc2c1 [RO-3306] |  |  | increased |  | high | 66.8±2.48% | low | no significant effect | no significant effect | high | does not induce |  |  | 
O=c1cc(-c2ccc(O)cc2)oc2cc(O)cc(O)c12 [apigenin] | remarkably inhibit | decreased significantly | increased | activated |  | 74±6.13% |  | no significant effect | no significant effect |  | does not induce | therapeutic effect of apigenin on bladder cancer regardless of tumor grade | resulted in cleavage of caspase-3 and poly-(ADP-ribose) polymerase (PARP) | remarkably inhibit
COc1ccc(-c2cc(=O)c3c(O)cc(O)cc3o2)cc1O [diosmetin] | decreased tumor forming ability | reduced bladder cancer cell growth |  | activated apoptosis |  |  |  |  |  |  |  |  |  | 
